From patent US20240228458A1, “PYRIMIDINE DERIVATIVE HAVING PROTEIN KINASE INHIBITORY ACTIVITY, AND THERAPEUTIC PHARMACEUTICAL COMPOSITION COMPRISING SAME” (THERAPEX CO., LTD., priority 2021, published 2024)

Assays:
Type in all cases: cell-based
parental Ba/F3 cell line = test: Growth inhibition (GI50) of the parental Ba/F3 cell line (not introduced with EGFR variants), Celltiter glo; settings: Mus musculus, BaF3, 72 h, parental Ba/F3 cells
Protocol: (§1) The parental Ba/F3 cell line is a population of cells that are not introduced with EGFR variants. Specifically, 100 μl of a cell line expressing each variant was plated in a 96-well plate at a density of 100,000 cells/ml. 10-point, 4-fold serial dilutions of each compound were prepared, starting at 2 mM. After 4 h, 0.5 μl of the compound (0.5% DMSO) was added, followed by incubation at 37° C. and 5% CO2 for 72 h. After incubation, the number of viable cells was measured using a Celltiter glo assay kit (Promega) and the GI50 of the compound was determined. The term “GI50” refers to the molar concentration (μM) of the compound required for 50% growth inhibition of cells.

[1] = system: Ba/F3 cells expressing del19/T790M/C797S (EGFR-DTC); test: Growth inhibition (GI50) of Ba/F3 cells expressing del19/T790M/C797S (EGFR-DTC), Celltiter glo; settings: Mus musculus, BaF3, 72 h
Protocol: (§2) In this experimental example, a determination was made as to whether the compounds prepared in Examples 1-283 have the ability to inhibit the growth of Ba/F3 cells expressing EGFR-wt, del19/T790M/C797S (EGFR-DTC), L858R/T790M/C797S (EGFR-LTC), del19/T790M (EGFR-DT), and L858R/T790M (EGFR-LT) variants.
as §1

[2] = system: Ba/F3 cells expressing L858R/T790M/C797S (EGFR-LTC); test: Growth inhibition (GI50) of Ba/F3 cells expressing L858R/T790M/C797S (EGFR-LTC), Celltiter glo; settings: Mus musculus, BaF3, 72 h
Protocol: as §2, §1

[3] = system: Ba/F3 cells expressing EGFR-wt; test: Growth inhibition (GI50) of Ba/F3 cells expressing EGFR-wt, Celltiter glo; settings: Mus musculus, BaF3, 72 h
Protocol: as §2, §1

| SMILES | GI50 [1] [µM] | GI50 [2] [µM] | GI50 [3] [µM] | GI50 (parental Ba/F3 cell line) [µM] |
| --- | --- | --- | --- | --- |
| COc1nc(N2CCC(N3CCN(C)CC3)CC2)ccc1Nc1ncc(Cl)c(N(c2ccccc2NS(C)(=O)=O)S(C)(=O)=O)n1 [Example 10, N-(5-chloro-2-((2-methoxy-6-(4-(4-methylpiperazin-1-yl)piperidin-1-yl)pyridin-3-yl)amino)pyrimidin-4-yl)-N-(2-(methylsulfonamido)phenyl)methanesulfonamide] | 0.5 to 2 | 0.5 to 2 | 0.5 to 2 | 2 to 10 |
| COc1cc(N2CCC(N3CCN(C)CC3)CC2)c(C)cc1Nc1ncc(Cl)c(N(C)c2ccccc2N(C)S(C)(=O)=O)n1 [Example 11] | 0.5 to 2 | 0.5 to 2 | 2 to 10 | 0.5 to 2 |
| COc1nc(N2CCC(N3CCN(C)CC3)CC2)ccc1Nc1ncc(Br)c(Nc2ccc(F)cc2NS(C)(=O)=O)n1 [Example 28, N-(2-((5-bromo-2-((2-methoxy-6-(4-(4-methylpiperazin-1-yl)piperidin-1-yl)pyridin-3-yl)amino)pyrimidin-4-yl)amino)-5-fluorophenyl)methanesulfonamide] | 0.5 to 2 | 0.5 to 2 | 2 to 10 | 2 to 10 |
| COc1nc(N2CCOCC2)ccc1Nc1ncc(Br)c(Nc2ccc(F)cc2NS(C)(=O)=O)n1 [Example 29, N-(2-((5-bromo-2-((2-methoxy-6-morpholinopyridin-3-yl)amino)pyrimidin-4-yl)amino)-5-fluorophenyl)methanesulfonamide] | > 10 | > 10 | > 10 | > 10 |
| COc1nc(N2CCN(C3CC3)CC2)ccc1Nc1ncc(Br)c(Nc2ccc(F)cc2NS(C)(=O)=O)n1 [Example 30, N-(2-((5-bromo-2-((6-(4-cyclopropylpiperazin-1-yl)-2-methoxypyridin-3-yl)amino)pyrimidin-4-yl)amino)-5-fluorophenyl)methanesulfonamide] | 2 to 10 | 2 to 10 | > 10 | > 10 |
| COc1nc(N2CCC(N3CCOCC3)CC2)ccc1Nc1ncc(Br)c(Nc2ccc(F)cc2NS(C)(=O)=O)n1 [Example 31, N-(2-((5-bromo-2-((2-methoxy-6-(4-morpholinopiperidin-1-yl)pyridin-3-yl)amino)pyrimidin-4-yl)amino)-5-fluorophenyl)methanesulfonamide] | 0.5 to 2 | 2 to 10 | 2 to 10 | 2 to 10 |
| COc1nc(N2CCC(C)(C)CC2)ccc1Nc1ncc(Br)c(Nc2ccc(F)cc2NS(C)(=O)=O)n1 [Example 32, N-(2-((5-bromo-2-((6-(4,4-dimethylpiperidin-1-yl)-2-methoxypyridin-3-yl)amino)pyrimidin-4-yl)amino)-5-fluorophenyl)methanesulfonamide] | 2 to 10 | 2 to 10 | 2 to 10 | 2 to 10 |
| CNS(=O)(=O)c1ccccc1Nc1nc(Nc2cc(C)c(N3CCC(N4CCN(C)CC4)CC3)cc2OC)ncc1Cl [Example 50, 2-((5-chloro-2-((2-methoxy-5-methyl-4-(4-(4-methylpiperazin-1-yl)piperidin-1-yl)phenyl)amino)pyrimidin-4-yl)amino)-N-methylbenzenesulfonamide] | 0.1 to 0.5 |  | 0.5 to 2 | 0.5 to 2 |
| CNS(=O)(=O)c1ccccc1Nc1nc(Nc2ccc(N3CCC(N4CCN(C)CC4)CC3)cc2OC)ncc1Cl [Example 51, 2-((5-chloro-2-((2-methoxy-4-(4-(4-methylpiperazin-1-yl)piperidin-1-yl)phenyl)amino)pyrimidin-4-yl)amino)-N-methylbenzenesulfonamide] | 0.1 to 0.5 |  | 2 to 10 | 2 to 10 |
| CNS(=O)(=O)c1ccccc1Nc1nc(Nc2ccc(N3CCOCC3)nc2)ncc1Cl [Example 53, 2-((5-chloro-2-((6-morpholinopyridin-3-yl)amino)pyrimidin-4-yl)amino)-N-methylbenzenesulfonamide] | 0.1 to 0.5 |  | 0.1 to 0.5 | 0.1 to 0.5 |
| CCN1CCN(c2ccc(Nc3ncc(Cl)c(Nc4ccccc4S(=O)(=O)NC)n3)c(OC)n2)CC1 [Example 54, 2-((5-chloro-2-((6-(4-ethylpiperazin-1-yl)-2-methoxypyridin-3-yl)amino)pyrimidin-4-yl)amino)-N-methylbenzenesulfonamide] | 2 to 10 |  | 0.1 to 0.5 | 2 to 10 |
| CNS(=O)(=O)c1ccccc1Nc1nc(Nc2ccc(N3CCC(N4CCN(C)CC4)CC3)nc2OC)ncc1Cl [Example 55, 2-((5-chloro-2-((2-methoxy-6-(4-(4-methylpiperazin-1-yl)piperidin-1-yl)pyridin-3-yl)amino)pyrimidin-4-yl)amino)-N-methylbenzenesulfonamide] | 0.5 to 2 |  | 0.5 to 2 | 0.1 to 0.5 |
| COc1cc(N2CCC(N3CCN(C)CC3)CC2)c(C)cc1Nc1ncc(Cl)c(Nc2ccccc2S(=O)(=O)NC2CC2)n1 [Example 59, 2-((5-chloro-2-((2-methoxy-5-methyl-4-(4-(4-methylpiperazin-1-yl)piperidin-1-yl)phenyl)amino)pyrimidin-4-yl)amino)-N-cyclopropylbenzenesulfonamide] | 0.5 to 2 |  | 0.5 to 2 | 0.5 to 2 |
| COc1nc(N2CCC(N3CCN(C)CC3)CC2)ccc1Nc1ncc(Cl)c(Nc2ccccc2S(=O)(=O)NC2CC2)n1 [Example 61] | 2 to 10 |  | 2 to 10 | 0.5 to 2 |

Second part, led by results:

| GI50 [1] [µM] | GI50 [2] [µM] | GI50 [3] [µM] | SMILES | GI50 (parental Ba/F3 cell line) [µM] |
| --- | --- | --- | --- | --- |
| 0.1 to 0.5 | 0.1 to 0.5 | 0.1 to 0.5 | COc1cc(N2CCC(N3CCN(C)CC3)CC2)c(Cl)cc1Nc1ncc(Cl)c(Nc2ccccc2NS(C)(=O)=O)n1 [Example 7, N-(2-((5-chloro-2-((5-chloro-2-methoxy-4-(4-(4-methylpiperazin-1-yl)piperidin-1-yl)phenyl)amino)pyrimidin-4-yl)amino)phenyl)methanesulfonamide] | 0.5 to 2 |
| 0.1 to 0.5 | 0.5 to 2 | 2 to 10 | COc1nc(N2CCC(N(C)C)C2)ccc1NC1=[N+]=C(N(c2ccccc2NS(C)(=O)=O)S(C)(=O)=O)C(Cl)=CN1 (stereo not shown) [Example 8, N-(5-chloro-2-((6-(3-(dimethylamino)pyrrolidin-1-yl)-2-methoxypyridin-3-yl)amino)pyrimidin-4-yl)-N-(2-(methylsulfonamido)phenyl)methanesulfonamide] | 2 to 10 |
| 0.1 to 0.5 | 0.025 to 0.1 | 0.1 to 0.5 | COc1cc(N2CCC(N3CCN(C)CC3)CC2)c(C)cc1Nc1ncc(Cl)c(N(c2ccccc2NS(C)(=O)=O)S(C)(=O)=O)n1 [Example 9, N-(5-chloro-2-((2-methoxy-5-methyl-4-(4-(4-methylpiperazin-1-yl)piperidin-1-yl)phenyl)amino)pyrimidin-4-yl)-N-(2-(methylsulfonamido)phenyl)methanesulfonamide] | 0.5 to 2 |
| 0.1 to 0.5 | 0.1 to 0.5 | 0.5 to 2 | CN1CCN(C2CCN(c3ncc(Nc4ncc(Br)c(Nc5ccc(F)cc5NS(C)(=O)=O)n4)cc3F)CC2)CC1 [Example 25, N-(2-((5-bromo-2-((5-fluoro-6-(4-(4-methylpiperazin-1-yl)piperidin-1-yl)pyridin-3-yl)amino)pyrimidin-4-yl)amino)-5-fluorophenyl)methanesulfonamide] | 0.5 to 2 |
| 0.025 to 0.1 | 0.025 to 0.1 | 0.1 to 0.5 | COc1cc(N2CCC(N3CCN(C)CC3)CC2)c(Cl)cc1Nc1ncc(Br)c(Nc2ccc(F)cc2NS(C)(=O)=O)n1 [Example 26, N-(2-((5-bromo-2-((5-chloro-2-methoxy-4-(4-(4-methylpiperazin-1-yl)piperidin-1-yl)phenyl)amino)pyrimidin-4-yl)amino)-5-fluorophenyl)methanesulfonamide] | 2 to 10 |
| 0.1 to 0.5 | 0.5 to 2 | 2 to 10 | CN1CCN(C2CCN(c3ccc(Nc4ncc(Br)c(Nc5ccc(F)cc5NS(C)(=O)=O)n4)c(Cl)c3)CC2)CC1 [Example 27, N-(2-((5-bromo-2-((2-chloro-4-(4-(4-methylpiperazin-1-yl)piperidin-1-yl)phenyl)amino)pyrimidin-4-yl)amino)-5-fluorophenyl)methanesulfonamide] | 2 to 10 |
| 0.025 to 0.1 |  | 0.1 to 0.5 | CNS(=O)(=O)c1ccccc1Nc1nc(Nc2ccc(N3CCC(N4CCN(C)CC4)CC3)nc2)ncc1Cl [Example 52, 2-((5-chloro-2-((6-(4-(4-methylpiperazin-1-yl)piperidin-1-yl)pyridin-3-yl)amino)pyrimidin-4-yl)amino)-N-methylbenzenesulfonamide] | 0.1 to 0.5 |
| 0.025 to 0.1 |  | 0.1 to 0.5 | CN1CCN(C2CCN(c3ccc(Nc4ncc(Cl)c(Nc5ccccc5S(=O)(=O)NC5CC5)n4)cc3F)CC2)CC1 [Example 60, 2-((5-chloro-2-((3-fluoro-4-(4-(4-methylpiperazin-1-yl)piperidin-1-yl)phenyl)amino)pyrimidin-4-yl)amino)-N-cyclopropylbenzenesulfonamide] | 0.1 to 0.5 |
